Experimental data as given in PMC10294644 (Cell, 2020).
Entries after “also recorded” stand apart in the source; their conditions may differ. One block for each compound: values may come before it.

Assays:
GCK [1] = target: T1, GCK (Homo sapiens, UniProt Q12851); experiment: Global quantitative proteomics, degradation of GCK; format: cell-based; details: 1 μM, 5 h
T1 sequence (Q12851 1-820): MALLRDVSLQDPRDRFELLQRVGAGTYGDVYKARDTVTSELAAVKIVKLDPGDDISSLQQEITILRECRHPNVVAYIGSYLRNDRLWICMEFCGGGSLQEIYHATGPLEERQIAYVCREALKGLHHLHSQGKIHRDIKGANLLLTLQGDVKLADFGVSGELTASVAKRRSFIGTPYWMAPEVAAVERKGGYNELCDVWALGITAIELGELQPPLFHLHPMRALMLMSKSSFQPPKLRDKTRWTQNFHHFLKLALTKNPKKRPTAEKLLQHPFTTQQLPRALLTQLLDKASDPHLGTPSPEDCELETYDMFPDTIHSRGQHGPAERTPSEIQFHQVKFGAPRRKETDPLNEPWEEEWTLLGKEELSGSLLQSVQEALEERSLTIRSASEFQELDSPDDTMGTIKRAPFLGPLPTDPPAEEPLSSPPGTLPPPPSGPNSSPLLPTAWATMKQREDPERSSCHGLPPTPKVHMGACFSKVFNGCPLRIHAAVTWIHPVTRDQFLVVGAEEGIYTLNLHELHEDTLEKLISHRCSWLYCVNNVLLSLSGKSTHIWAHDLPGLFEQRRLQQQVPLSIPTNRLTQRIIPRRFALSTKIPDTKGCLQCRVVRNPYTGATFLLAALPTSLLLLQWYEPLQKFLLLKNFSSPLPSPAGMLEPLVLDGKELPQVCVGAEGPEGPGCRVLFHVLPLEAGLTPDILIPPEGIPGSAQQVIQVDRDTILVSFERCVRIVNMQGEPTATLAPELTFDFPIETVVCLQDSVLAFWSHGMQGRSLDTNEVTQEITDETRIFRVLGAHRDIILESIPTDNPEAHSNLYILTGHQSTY

FLAG-tagged CRBN = FLAG-tagged CRBN (Homo sapiens, UniProt Q96SW2); experiment: FLAG-CRBN AP-MS, proteins enriched with CRBN; format: cell-based; details: HEK293T cells, 1 μM, 5 h, relative to SB1-G-187 and WH-10417–099
MOLT-4 cells = experiment: Time-course RNA-sequencing; format: cell-based, human; details: for transcript levels: 1 μM
YES1 = YES1 (Homo sapiens, UniProt P07947); format: cell-based; details: HEK293T cells, 1 μM, 5 h
BUB1 = BUB1 (Homo sapiens, UniProt O43683); format: cell-based; details: MOLT-4 and MM.1S cell lines
GCK [2] = target: T1, GCK; experiment: KiNativ live cell profiling; format: cell-based; details: CRBN−/− MOLT-4 cells, 1 μM, 5 h
LIMK2 = LIMK2 (Homo sapiens, UniProt P53671); experiment: Global quantitative proteomics; format: cell-based; details: MOLT-4 cells, 1 μM, 5 h, relative protein abundance
CDK17 = CDK17 (Homo sapiens, UniProt Q00537); experiment: Global quantitative proteomics; format: cell-based; details: MOLT-4 cells, 1 μM, 5 h, relative protein abundance
AURKA (Aurora A) = target: T2, AURKA (Aurora A) (Homo sapiens, UniProt O14965); experiment: Global quantitative proteomics and immunoblot, degradation of AURKA; format: cell-based; details: MOLT-4 cells 1 μM 5 h proteomics; validated by immunoblotting in MM.1S cells
T2 sequence (O14965 1-403): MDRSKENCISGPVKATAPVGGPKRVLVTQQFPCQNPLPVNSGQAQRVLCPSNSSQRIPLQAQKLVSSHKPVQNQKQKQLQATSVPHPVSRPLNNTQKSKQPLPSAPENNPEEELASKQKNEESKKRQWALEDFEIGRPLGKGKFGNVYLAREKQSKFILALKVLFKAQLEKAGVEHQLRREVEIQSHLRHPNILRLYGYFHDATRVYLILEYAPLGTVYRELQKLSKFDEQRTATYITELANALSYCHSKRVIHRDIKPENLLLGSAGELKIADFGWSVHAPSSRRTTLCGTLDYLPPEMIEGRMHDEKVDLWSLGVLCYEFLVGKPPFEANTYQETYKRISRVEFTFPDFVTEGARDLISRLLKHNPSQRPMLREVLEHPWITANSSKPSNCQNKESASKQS

[3] = tested on: MM.1S multiple myeloma cell line; experiment: CellTiter-Glo viability assay; format: cell-based, human; details: MM.1S cells, 72 h, compared with parental inhibitor alisertib
CSK = CSK (Homo sapiens, UniProt P41240); experiment: Global quantitative proteomics; format: cell-based; details: MOLT-4 cells, 1 μM, 5 h
IRAK1 = IRAK1 (Homo sapiens, UniProt P51617); format: cell-based; details: HEK293T cells, 1 μM, 5 h
LYN = LYN (Homo sapiens, UniProt P07948); format: cell-based; details: HEK293T cells, 1 μM, 5 h

Chain of YES1 (P07947 2-543 limits assumed): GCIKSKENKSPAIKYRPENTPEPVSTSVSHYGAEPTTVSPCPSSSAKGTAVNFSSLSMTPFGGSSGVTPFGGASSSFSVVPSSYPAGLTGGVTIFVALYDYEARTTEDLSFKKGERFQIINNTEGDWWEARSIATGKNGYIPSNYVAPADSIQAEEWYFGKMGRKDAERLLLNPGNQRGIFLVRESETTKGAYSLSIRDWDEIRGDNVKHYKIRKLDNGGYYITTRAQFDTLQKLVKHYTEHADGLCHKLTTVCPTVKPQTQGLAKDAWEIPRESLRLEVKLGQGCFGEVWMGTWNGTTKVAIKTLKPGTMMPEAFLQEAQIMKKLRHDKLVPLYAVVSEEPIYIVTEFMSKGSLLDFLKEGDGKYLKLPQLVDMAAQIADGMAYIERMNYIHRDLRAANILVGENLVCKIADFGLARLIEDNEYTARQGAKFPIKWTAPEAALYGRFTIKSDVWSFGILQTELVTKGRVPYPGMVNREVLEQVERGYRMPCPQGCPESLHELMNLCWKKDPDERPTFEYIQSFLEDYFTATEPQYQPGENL
Chain of YES1 (Q96SW2 whole entry partner): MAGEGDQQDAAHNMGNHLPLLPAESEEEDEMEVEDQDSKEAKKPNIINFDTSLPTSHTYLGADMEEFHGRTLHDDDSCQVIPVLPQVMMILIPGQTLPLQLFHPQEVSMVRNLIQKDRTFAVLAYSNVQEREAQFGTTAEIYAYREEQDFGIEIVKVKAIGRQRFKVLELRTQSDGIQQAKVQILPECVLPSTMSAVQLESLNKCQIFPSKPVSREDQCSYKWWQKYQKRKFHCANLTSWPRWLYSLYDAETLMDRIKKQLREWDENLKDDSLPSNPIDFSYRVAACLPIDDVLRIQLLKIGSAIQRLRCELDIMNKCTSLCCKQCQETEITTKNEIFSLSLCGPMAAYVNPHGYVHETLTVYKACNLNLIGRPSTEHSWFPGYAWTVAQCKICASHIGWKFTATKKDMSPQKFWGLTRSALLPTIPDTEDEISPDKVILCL
Chain of YES1 (Q16531 2-1140 partner limits assumed): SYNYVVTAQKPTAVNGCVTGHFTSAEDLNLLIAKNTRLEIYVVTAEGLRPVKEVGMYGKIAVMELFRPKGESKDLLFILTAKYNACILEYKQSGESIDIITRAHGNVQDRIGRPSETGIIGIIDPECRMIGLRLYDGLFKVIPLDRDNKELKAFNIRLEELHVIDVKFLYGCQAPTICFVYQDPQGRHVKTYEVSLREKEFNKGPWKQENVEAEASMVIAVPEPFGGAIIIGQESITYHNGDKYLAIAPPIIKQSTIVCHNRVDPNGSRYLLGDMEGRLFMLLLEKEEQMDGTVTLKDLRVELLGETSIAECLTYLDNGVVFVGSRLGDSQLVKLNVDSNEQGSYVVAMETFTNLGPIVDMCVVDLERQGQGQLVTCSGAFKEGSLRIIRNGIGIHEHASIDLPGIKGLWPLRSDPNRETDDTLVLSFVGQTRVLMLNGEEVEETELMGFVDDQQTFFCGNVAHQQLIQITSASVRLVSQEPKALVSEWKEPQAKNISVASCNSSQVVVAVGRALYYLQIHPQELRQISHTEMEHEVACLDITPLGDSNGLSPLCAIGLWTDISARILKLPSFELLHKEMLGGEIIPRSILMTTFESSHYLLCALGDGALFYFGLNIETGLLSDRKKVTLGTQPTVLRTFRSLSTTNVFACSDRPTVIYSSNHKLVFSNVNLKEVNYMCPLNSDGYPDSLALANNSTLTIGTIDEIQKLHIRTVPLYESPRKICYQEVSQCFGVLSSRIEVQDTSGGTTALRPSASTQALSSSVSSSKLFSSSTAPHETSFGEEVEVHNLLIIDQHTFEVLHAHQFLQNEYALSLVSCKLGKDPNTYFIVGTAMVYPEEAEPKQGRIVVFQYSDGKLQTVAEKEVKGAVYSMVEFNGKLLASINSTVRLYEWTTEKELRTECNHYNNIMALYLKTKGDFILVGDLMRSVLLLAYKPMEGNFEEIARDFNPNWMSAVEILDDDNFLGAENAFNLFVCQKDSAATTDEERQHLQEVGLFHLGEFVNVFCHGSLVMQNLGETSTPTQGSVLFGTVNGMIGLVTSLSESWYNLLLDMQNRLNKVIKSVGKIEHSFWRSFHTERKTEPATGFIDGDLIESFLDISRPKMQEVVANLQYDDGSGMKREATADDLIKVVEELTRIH
Chain of CDK17 (Q00537 whole entry): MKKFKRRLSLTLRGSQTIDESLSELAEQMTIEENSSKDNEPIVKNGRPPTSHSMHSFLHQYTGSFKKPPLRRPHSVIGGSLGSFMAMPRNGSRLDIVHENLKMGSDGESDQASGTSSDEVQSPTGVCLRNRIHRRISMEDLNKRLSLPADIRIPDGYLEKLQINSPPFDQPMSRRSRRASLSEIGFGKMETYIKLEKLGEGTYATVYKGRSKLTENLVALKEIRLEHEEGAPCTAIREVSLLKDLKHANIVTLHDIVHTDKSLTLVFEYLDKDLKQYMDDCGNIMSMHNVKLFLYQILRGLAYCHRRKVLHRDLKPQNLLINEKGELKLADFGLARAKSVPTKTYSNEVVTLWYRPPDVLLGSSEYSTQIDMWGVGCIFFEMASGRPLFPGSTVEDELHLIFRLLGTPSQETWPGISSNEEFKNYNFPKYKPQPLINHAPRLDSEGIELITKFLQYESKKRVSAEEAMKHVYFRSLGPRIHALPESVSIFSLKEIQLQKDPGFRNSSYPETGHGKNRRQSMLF
Chain of FLAG-tagged CRBN (Q96SW2 whole entry): as the sequence (Q96SW2 whole entry partner) above
Chain of FLAG-tagged CRBN (Q16531 2-1140 partner limits assumed): as the sequence (Q16531 2-1140 partner limits assumed) above
Chain of BUB1 (O43683 whole entry): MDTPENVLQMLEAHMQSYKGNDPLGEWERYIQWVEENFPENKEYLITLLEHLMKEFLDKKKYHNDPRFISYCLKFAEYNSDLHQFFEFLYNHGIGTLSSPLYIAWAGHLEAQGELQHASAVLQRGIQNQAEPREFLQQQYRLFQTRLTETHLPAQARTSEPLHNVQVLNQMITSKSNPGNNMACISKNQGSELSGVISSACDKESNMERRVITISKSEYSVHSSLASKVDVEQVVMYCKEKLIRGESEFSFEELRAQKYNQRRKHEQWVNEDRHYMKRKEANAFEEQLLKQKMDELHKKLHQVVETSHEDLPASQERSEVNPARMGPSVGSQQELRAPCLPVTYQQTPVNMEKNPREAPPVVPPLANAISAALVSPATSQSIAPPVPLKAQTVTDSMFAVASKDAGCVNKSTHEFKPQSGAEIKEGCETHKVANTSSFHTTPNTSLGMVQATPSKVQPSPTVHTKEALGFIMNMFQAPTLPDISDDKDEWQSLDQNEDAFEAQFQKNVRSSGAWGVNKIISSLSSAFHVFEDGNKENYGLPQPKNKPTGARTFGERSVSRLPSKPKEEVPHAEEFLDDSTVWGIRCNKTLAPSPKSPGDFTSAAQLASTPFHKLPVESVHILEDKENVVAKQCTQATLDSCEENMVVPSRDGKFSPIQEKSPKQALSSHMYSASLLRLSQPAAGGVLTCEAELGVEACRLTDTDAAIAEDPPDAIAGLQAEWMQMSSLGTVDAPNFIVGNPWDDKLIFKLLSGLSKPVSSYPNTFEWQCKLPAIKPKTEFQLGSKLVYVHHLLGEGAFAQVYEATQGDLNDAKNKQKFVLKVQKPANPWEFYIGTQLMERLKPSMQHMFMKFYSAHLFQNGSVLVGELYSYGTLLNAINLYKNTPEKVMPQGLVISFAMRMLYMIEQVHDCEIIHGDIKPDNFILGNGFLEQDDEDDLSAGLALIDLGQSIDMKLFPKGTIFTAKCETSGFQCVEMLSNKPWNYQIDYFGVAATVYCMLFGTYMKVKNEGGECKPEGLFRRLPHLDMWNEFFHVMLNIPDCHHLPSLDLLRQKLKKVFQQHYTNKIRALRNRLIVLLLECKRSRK
Chain of BUB1 (Q96SW2 whole entry partner): as the sequence (Q96SW2 whole entry partner) above
Chain of BUB1 (Q16531 2-1140 partner limits assumed): as the sequence (Q16531 2-1140 partner limits assumed) above
Chain of IRAK1 (P51617 whole entry): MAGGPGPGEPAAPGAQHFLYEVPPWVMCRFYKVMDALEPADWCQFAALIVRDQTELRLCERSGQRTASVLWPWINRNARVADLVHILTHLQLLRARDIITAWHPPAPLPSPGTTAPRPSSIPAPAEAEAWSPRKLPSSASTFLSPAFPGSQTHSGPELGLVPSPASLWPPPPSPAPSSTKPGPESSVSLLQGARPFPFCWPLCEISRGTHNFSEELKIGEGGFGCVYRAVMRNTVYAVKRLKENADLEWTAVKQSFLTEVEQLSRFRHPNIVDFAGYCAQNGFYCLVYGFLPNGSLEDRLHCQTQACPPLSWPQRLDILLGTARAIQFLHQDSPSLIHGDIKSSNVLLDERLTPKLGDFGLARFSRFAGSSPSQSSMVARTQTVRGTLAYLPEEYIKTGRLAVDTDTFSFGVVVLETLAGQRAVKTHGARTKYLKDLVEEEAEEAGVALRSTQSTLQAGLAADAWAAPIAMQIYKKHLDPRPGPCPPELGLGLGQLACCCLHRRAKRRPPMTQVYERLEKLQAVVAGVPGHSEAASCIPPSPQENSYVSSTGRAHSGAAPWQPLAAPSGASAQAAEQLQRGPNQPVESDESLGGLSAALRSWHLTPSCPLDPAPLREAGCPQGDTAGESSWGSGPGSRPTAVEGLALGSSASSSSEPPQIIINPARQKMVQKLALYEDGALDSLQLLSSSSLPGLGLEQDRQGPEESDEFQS
Chain of IRAK1 (Q96SW2 whole entry partner): as the sequence (Q96SW2 whole entry partner) above
Chain of IRAK1 (Q16531 2-1140 partner limits assumed): as the sequence (Q16531 2-1140 partner limits assumed) above

degradation of GCK (GCK [1]): not degraded
enriched proteins in the CRBN AP-MS (FLAG-tagged CRBN): fewer enriched proteins
transcript levels (MOLT-4 cells; 8 and 12 h time points): complete transcriptional collapse
degradation of BUB1 (BUB1): degraded
GCK engagement, inhibition of probe binding (GCK [2]): 50 %I
Structure (SMILES): CC(C)S(=O)(=O)c1ccccc1Nc1nc(Nc2ccc(N3CCN(CCOCCNC(=O)CNc4cccc5c4C(=O)N(C4CCC(=O)NC4=O)C5=O)CC3)cc2)ncc1Cl (stereo not shown) [SK-3–91]
transcript levels (MOLT-4 cells; up until the 4 h time point): largely unchanged
transcriptional changes of CAMKK2, DNAPK, IKKe and JAK2 (MOLT-4 cells; 4 h treatment): no upregulation
YES1 complex formation with CRBN and degradation (YES1): complex formation does not predict degradation

degradation of AURKA (AURKA (Aurora A)): potent and selective degradation
Structure (SMILES): COc1cc(Nc2ncc3c(n2)-c2ccc(Cl)cc2C(c2c(F)cccc2OC)=NC3)ccc1C(=O)NCCCOCCOCCOCCCNC(=O)COc1cccc2c1C(=O)N(C1CCC(=O)NC1=O)C2=O (stereo not shown) [dAURK-4]
antiproliferative effects [3]: superior antiproliferative effects

Second part, the compound before the results:

Structure (SMILES): Cc1ncsc1-c1ccc([C@H](C)NC(=O)[C@@H]2C[C@@H](O)CN2C(=O)[C@@H](NC(=O)CCOCCOCCNc2nccc(-c3sc(C(C)(C)C)nc3-c3cccc(NS(=O)(=O)c4c(F)cccc4F)c3F)n2)C(C)(C)C)cc1 [DD-03–156]
degradation of LIMK2 (LIMK2): potent and selective degradation
degradation of CDK17 (CDK17): potent and selective degradation; also recorded: exquisite

Structure (SMILES): Cc1nc(Nc2ncc(C(=O)Nc3c(C)cccc3Cl)s2)cc(N2CCN(CC(=O)NCCCCNC(=O)COc3cccc4c3C(=O)N(C3CCC(=O)NC3=O)C4=O)CC2)n1 (stereo not shown) [DB-3-291]
selectivity among CSK-degrading compounds (CSK): greatest selectivity
degradation of CSK (CSK; compared with the 15 library compounds that target CSK): strongest degradation

Structure (SMILES): Cc1ccc(C(=O)Nc2ccc(CN3CCN(CCCOCCOCCOCCNC(=O)COc4cccc5c4C(=O)N(C4CCC(=O)NC4=O)C5=O)CC3)c(C(F)(F)F)c2)cc1C#Cc1cnc2cccnn12 (stereo not shown) [SB1-G-187]
degradation of GCK (GCK [1]): degraded
IRAK1 complex formation with CRBN and degradation (IRAK1): complex formation and degradation
YES1 complex formation with CRBN and degradation (YES1): complex formation and degradation
LYN complex formation with CRBN and degradation (LYN): complex formation and degradation
GCK engagement, inhibition of probe binding (GCK [2]): 94 %I
